Entries after “also recorded” stand apart in the source; their conditions may differ.
Key:
E. coli ESS [1] = assay: Release of Focusin from mouse tissue: inhibition by the 4th wash liquid; type: cell-based, Escherichia coli; conditions: for Inhibition % by the 4th wash liquid: 10 μg Focusin
Description: Focusin was tested in the same manner as that described above (under 8.1) with the exception that the tissues in the test tube were washed four times with a solution of 1 ml sterile saline. Each saline wash was for 1 hour at 37° C. Following incubation, the washing saline solution was added to an exponentially growing cultures of E. coli ESS in a concentration of 10^5 cells/ml.
The cultures with the saline wash were incubated at 37° C. for 6 hours and then viable cell count was performed in order to estimate the amount of killing by the antibacterial agent that were released from the tissues. After the four washes the tissues were transferred to 10^5 E. coli ESS log cultures and were then incubated for 5 hours. The tissues were transferred in this way for three times, each time the percentage of inhibition by the treated tissue was measured by viable count.
The tissues were treated as described in Section 8.2 above.

tested bacterial strains = assay: Antimicrobial spectrum, overall; type: cell-based
Description: (§1) Saturated solutions of TA and Focusin were prepared by adding 1.14 μg TA and 7 μg Focusin to 1 ml LB (final conc. of 1% ethanol). About 10^5 bacteria of various strains were then added. The control was bacteria in the same medium with no antibacterial agents. The bacteria were introduced at 37° C. with shaking at 100 rpm. When the control became turbid, viable cell count was performed on LB agar plates. Growth inhibition is presented as percentage of the no antibiotic control.

E. coli ESS Kan^r = assay: Sensitivity to combined exposure to light and air (remaining activity by paper disc bioassay); type: physicochemical, Escherichia coli
Description: Antibiotic activity against E. coli ESS Kan^r was determined by the paper disc filter assay (Leo et al., 1945). Unknown quantities of antibiotic TA or Focusin, dissolved in ethanol, saline or NB were applied to paper disc filters (6 mm diameter; Schleicher and Schull). After allowing the ethanol to evaporate in the hood for about 15 mins, the dry filters were placed on nutrient broth plates which had been overlaid with an overnight culture of E. coli ESS Kan^r as described above.
The diameter of the zone of inhibition was recorded after 18 hours in incubation at 37° C. The concentration of the antibacterial agents were determined from a standard inhibition curve prepared with known quantities of TA and Focusin.
100 ng of TA and Focusin dissolved in ethanol were applied to paper filters and allowed to dry in a hood for 15 mins. The filters were then exposed to light from a fluorescent lamp in the hood; the distance from the lamp to the filters was approximately 40 cm. The controls were placed in the dark under a plastic box within the hood.
After exposure of the filters to the light for varying periods of time, the remaining activity of the agents was measured by the paper disc bioassay and the results are shown in the following Table 1: […]

Staphylococcus albus = assay: Antimicrobial spectrum, liquid media, viable cell count; type: cell-based
Description: as §1

Providencia strautii = assay: as above; type: cell-based; conditions: saturating concentrations
Description: as §1

Erwinia herbicola = assay: as above; type: cell-based; conditions: saturating concentrations
Description: as §1

Helicobacter pilori = assay: as above; type: cell-based; conditions: saturating concentrations
Description: as §1

Serratia marcescens = assay: as above; type: cell-based; conditions: saturating concentrations
Description: as §1

Bacillus subtilis = assay: as above; type: cell-based; conditions: saturating concentrations
Description: as §1

Proteus vulgaris = assay: as above; type: cell-based; conditions: saturating concentrations
Description: as §1

Klebsiella sp = assay: as above; type: cell-based; conditions: saturating concentrations; hospital strain
Description: as §1

Klebsiella Gr47 = assay: as above; type: cell-based; conditions: saturating concentrations; hospital strain
Description: as §1

Enterobacter = assay: as above; type: cell-based; conditions: saturating concentrations
Description: as §1

Pseudomonas aeruginosa = assay: as above; type: cell-based; conditions: saturating concentrations
Description: as §1

Salmonella thyphimurium = assay: as above; type: cell-based; conditions: saturating concentrations
Description: as §1

Klebsiella pneumoniae = assay: as above; type: cell-based; conditions: saturating concentrations; hospital strain
Description: as §1

Citrobacter diversus = assay: as above; type: cell-based; conditions: saturating concentrations
Description: as §1

E. coli ESS [2] = assay: Bactericidal effect when bound to mouse tissues; type: cell-based, Escherichia coli; conditions: 4 μg TA or 20 μg Focusin, 5 h
Description: Two mice were sacrificed by exposure to ether. The bladder, eyes, intestines, lungs, heart, teeth, liver, spleen and kidneys were removed by dissection. Each experimental set consisted of three test tubes. A piece of each tissue type was placed in each of the three test tubes. The amount of tissue per tube were as follows: bladder 1/3, eye 1/2, intestine 1 cm, lung 1/2, heart 1/3, fang tooth 1/2, liver 1/3, spleen 1/3 and kidney 1/2. One test tube contained a control tissue which was treated only with the solvent used for dissolving the antibacterial agent, usually 50% ethanol. The second and third test tubes contained tissues were treated with 4 μg TA or 20 μg Focusin, respectively.
Following application of the antibacterial agent or the control solution, the tissues were allowed to dry in a hood for 30 mins., and then placed in the test tubes.
One milliliter of sterile saline was then added to each test tube and the tubes were then incubated with shaking (50 rpm) at 37° C. for one hour. The amount of antibacterial agent that was released to the saline was measured following chloroform extraction by the disc filter assay.
The tissues were then transferred to exponentially growing cultures of E. coli ESS in NB at a concentration of 10^5 cells/ml. Incubation was at 37° C. and continued for 5 hours, following which the number of viable cells was checked.

CCCC1OC(=O)C(C)CC(C)CCCCC(=O)CCCC(CC)CCCC(COC)CCC(O)C(O)CC(O)CNC1=O (centres unmarked) [Focusin]
inhibition of E. coli growth by the fourth liquid wash (in words) (E. coli ESS [1]; all tissues except liver): completely inhibit the E. coli growth | Inhibition % by the 4th wash liquid (E. coli ESS [1]; bladder): 100% | Inhibition % by the 4th wash liquid (E. coli ESS [1]; eye): 100% | Inhibition % by the 4th wash liquid (E. coli ESS [1]; heart): 100% | Inhibition % by the 4th wash liquid (E. coli ESS [1]; intestine): 100% | Inhibition % by the 4th wash liquid (E. coli ESS [1]; kidney): 100% | Inhibition % by the 4th wash liquid (E. coli ESS [1]; liver): 67% | Inhibition % by the 4th wash liquid (E. coli ESS [1]; lungs): 100% | Inhibition % by the 4th wash liquid (E. coli ESS [1]; spleen): 100% | Inhibition % by the 4th wash liquid (E. coli ESS [1]; teeth): 100% | antibacterial activity spectrum (in words) (tested bacterial strains): broad spectrum antibacterial activity against both Gram-positive and Gram-negative bacteria | activity after exposure to light and air (E. coli ESS Kan^r; 0 hours): 100% | activity after exposure to light and air (E. coli ESS Kan^r; 1 hour): 100% | activity after exposure to light and air (E. coli ESS Kan^r; 4 hours): 100% | activity after exposure to light and air (E. coli ESS Kan^r; 6 hours): 100% | activity after exposure to light and air (E. coli ESS Kan^r; 8 hours): 100% | activity after exposure to light and air (E. coli ESS Kan^r; 20 hours): 100% | stability to exposure to light and air (in words) (E. coli ESS Kan^r; combined light and air, up to 20 hours): much more stable to exposure to light and air than the TA antibiotic; also recorded: completely resistant to breakdown | incubation time after which the strain began to show sensitivity (Staphylococcus albus; saturating concentrations): > 46 h | killing (Staphylococcus albus; saturating concentrations (Focusin), on the 46th hour): 73% | killing (Providencia strautii): 100% | killing (Erwinia herbicola): 100% | killing (Helicobacter pilori): 100% | killing (Serratia marcescens): 67% | killing (Bacillus subtilis): 100% | killing (Proteus vulgaris): 90% | killing (Klebsiella sp): 60% | killing (Klebsiella Gr47): 100% | killing (Enterobacter): 100% | killing (Pseudomonas aeruginosa): 0% | killing (Salmonella thyphimurium): 40% | killing (Klebsiella pneumoniae): 96% | killing (Citrobacter diversus): 100% | Inhibition % by the treated tissue (E. coli ESS [2]; bladder): 100% | Inhibition % by the treated tissue (E. coli ESS [2]; heart): 90% | Inhibition % by the treated tissue (E. coli ESS [2]; intestine): 100% | Inhibition % by the treated tissue (E. coli ESS [2]; kidney): 100% | Inhibition % by the treated tissue (E. coli ESS [2]; liver): 94% | Inhibition % by the treated tissue (E. coli ESS [2]; lungs): 100% | Inhibition % by the treated tissue (E. coli ESS [2]; spleen): 100% | Inhibition % by the treated tissue (E. coli ESS [2]; teeth): 100%

— US5532231A, “Antibacterial agent” (priority 1994, dated 1996)
